{
  "source": "patent US9113641B2",
  "about": "“Probiotic bacteria and regulation of fat storage” (Arla Foods amba, priority 2007, dated 2015)",
  "type_in_all_cases": "cell-based, human",
  "key": {"[1]": {"system": "Adipose differentiation-related protein (ADRP)", "assay": "Expression of PPARγ target gene ADRP in HCT116 cells (real time PCR)", "conditions": "100 μM CLA for 24 h", "protocol": "(§1) The human colorectal adenocarcinoma cell lines HCT116 (CCL-247, deposit at ATCC), LoVo (CCL-229, deposit ATCC), HT29 (HTB-38, deposit ATCC) and SW480 (CCL-228, deposit ATCC) were grown and maintained according to supplier's recommendations.\n(§2) Conjugated linoleic acid (CLA; 94594) was purchased as a trans-10, cis-12 mix from Sigma. PPARγ and PPARα ligands Troglitazone (5 μM) and WY-14643 (100 μM) were products from Cayman.\n(§3) RNA was prepared using the Qiagen RNeasy Mini Kit following the manufacturer's protocol and cDNA was synthesised using the cDNA synthesis kit from Invitrogen according to protocol. Semi-quantitative, SYBR Green based (Applied Biosystems) real time PCR was used to detect transcripts. Forward and reverse primers were mixed at equal concentration and used at a final concentration of 0.2 μM. ADRP Fw: 5′-[…]-3′ (SEQ ID NO:1), Rv: 5′-[…]-3′ (SEQ ID NO:2); Beta-actin Fw: 5′-CCTGGCACCCAGCACAAT-3′ (SEQ ID NO:3), Rv: 5′-[…]-3′ (SEQ ID NO:4); FIAF Fw: 5′-AAAGAGGCTGCCCGAGAT-3′ (SEQ ID NO:5), Rv: 5′-TCTCCCCAACCTGGAACA-3′ (SEQ ID NO:6); ME Fw: 5′-[…]-3′ (SEQ ID NO:7), Rv: 5′-[…]-3′ (SEQ ID NO:8). Each experiment was carried out in sample duplicates. The mRNA levels of each sample were determined in triplicates. Real time PCR was performed using the ABI 7500 System for data acquisition and analysis by using the ABI 7500 System Sequence Detection software. […]"}, "malic enzyme (ME)": {"system": "malic enzyme (ME)", "assay": "Expression of PPARα target gene ME in HCT116 cells (real time PCR)", "conditions": "100 μM CLA for 24 h", "protocol": "as §1, §2, §3"}, "[2]": {"system": "FIAF expression in HT29 cells, PPARγ incapacitated by siRNA", "assay": "FIAF expression in HT29 cells with PPARγ siRNA", "protocol": "as §1\nRNA was prepared using the Qiagen RNeasy Mini Kit following the manufacturer's protocol and cDNA was synthesised using the cDNA synthesis kit from Invitrogen according to protocol. Semi-quantitative, SYBR Green based (Applied Biosystems) real time PCR was used to detect transcripts. Forward and reverse primers were mixed at equal concentration and used at a final concentration of 0.2 μM. ADRP Fw: 5′-[…]-3′ (SEQ ID NO:1), Rv: 5′-[…]-3′ (SEQ ID NO:2); Beta-actin Fw: 5′-CCTGGCACCCAGCACAAT-3′ (SEQ ID NO:3), Rv: 5′-[…]-3′ (SEQ ID NO:4); FIAF Fw: 5′-AAAGAGGCTGCCCGAGAT-3′ (SEQ ID NO:5), Rv: 5′-TCTCCCCAACCTGGAACA-3′ (SEQ ID NO:6); ME Fw: 5′-[…]-3′ (SEQ ID NO:7), Rv: 5′-[…]-3′ (SEQ ID NO:8). Each experiment was carried out in sample duplicates. The mRNA levels of each sample were determined in triplicates. Real time PCR was performed using the ABI 7500 System for data acquisition and analysis by using the ABI 7500 System Sequence Detection software. Data is presented as mean values with standard errors.\nElimination of PPAR transcripts from HT29 cells was accomplished by Dharmacons readymade siRNA products (SMARTpool Human PPARG). […]"}, "[3]": {"system": "FIAF expression in HCT116 cells", "assay": "FIAF expression in HCT116 cells by real time PCR after stimulation with bacteria, media or compounds", "conditions": "concentration curve, 100 μM CLA for 6 h and 24 h", "protocol": "as §1\nStrain F19 was always pre-cultured for 6-8 h at 37° C. on a rotating platform (225 rpm). Pre-cultures were then added to pre-warmed deMan Rogosa Sharpe (MRS) medium (dilution 1:20). The cultures were cultivated overnight prior to use. Bacterial concentration at OD600nm was determined: 1 OD600nm=1×10^8 F19/ml. The required amount of F19 was resuspended in an appropriate volume of the respective pre-warmed medium without antibiotics.\nCo-culture was prepared by washing the colonic cells with warm PBS. Cells were incubated with 2×10^7/ml of F19 or with medium alone. The experiment was terminated by thoroughly washing the plates with ice-cold PBS.\nAs a control, F19 was heat-inactivated by incubating at 80° C. for 30 minutes. […]\nRNA was prepared using the Qiagen RNeasy Mini Kit following the manufacturer's protocol and cDNA was synthesised using the cDNA synthesis kit from Invitrogen according to protocol. Semi-quantitative, SYBR Green based (Applied Biosystems) real time PCR was used to detect transcripts. […] The mRNA levels of each sample were determined in triplicates. […]"}},
  "data": [
    {"substance": "Conjugated linoleic acid [CLA]", "values": [
      {"measurement": "Expression of PPARγ target gene ADRP", "setting": "[1]", "value": "increased expression"},
      {"measurement": "Expression of PPARα target gene ME", "setting": "malic enzyme (ME)", "value": "increased expression"},
      {"measurement": "FIAF expression when PPARγ is incapacitated by siRNA", "setting": "[2]", "value": "no longer enhanced"},
      {"measurement": "FIAF expression induced by CLA, dose and time dependence", "setting": "[3]", "value": "upregulate FIAF expression in a dose and time dependent manner"}
    ]}
  ]
}
